# Values of other authors as cited in US12233088B2 (Alexion Pharmaceuticals, Inc., priority 2017, dated 2025).
# Tested on: patients with Wilson's disease
# Conditions: cited from earlier work; for patients with worsening of neurological symptoms on initiation of treatment: reported
SMILES,"children with gastrointestinal adverse events (Polish cohort, Wiernicka et al.)",patients who discontinued treatment because of adverse events (retrospective study),patients with worsening of neurological symptoms on initiation of treatment,mean time to neurological worsening from initiation (Litwin et al.),"patients with early neurological worsening, n (%) (of 42 patients with neurological Wilson's disease, Litwin et al.)"
[Zn] [zinc],40%,11%,–,–,–
NCCNCCNCCN [trientine],–,–,approximately 25%,–,–
"CC(C)(S)[C@@H](N)C(=O)O [penicillamine, D-penicillamine]",–,–,approximately 25%,2.3 months,12 (29%)
